Values quoted from earlier work in patent US20100303877A1, “Controlled Release Hydrogel Films” (Board of Regents, The University of Texas System, priority 2009, published 2010).

Test system: mammalian cells

[Ag+] [Ag^+, silver ions]
silver ion concentration above which cytotoxicity occurs: > 10 mg per liter
